The experiment has as its system CEM cells HIV-1 protection, formazan growth assay. The experiment can be described thus: NCI AIDS Antiviral Assay. To be noted: for IC50: measured here: growth of uninfected CEM cells. The method, boiled down:
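Protection of CEM cells against HIV-1 was scored from cell growth (soluble formazan) across five concentrations, with parallel uninfected cells. Lack of protection may reflect toxicity.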

Molecules are shown by their SMILES. Activity calls are given as the source filed them.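 Rule for the calls: active = compounds giving half or more protection of infected cells from virus-caused growth loss, again on retest; inactive = the rest.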 Where a SMILES comes first, the peptide text is derived from it. [ ]: non-standard residue; d: D form. The star is where a group is joined. ξ: configuration not given here. Dnp = O=[N+]([O-])c1ccc(*)c([N+](=O)[O-])c1; Bz = O=C(c1ccccc1)*; ξC = NC(CS)C(=O)O

Turning to `Cc1cnc(SCCN2CCN(C)CC2)nc1-c1cc2ccccc2s1`, the EC50 was more than 646 µM and the IC50 turned out to be 1.29 µM. For `NC1CNC(=O)c2c(Cl)sc(Cl)c21` (stereo not drawn), in that order: more than 200 µM and more than 200 µM. In the case of `CC(C)COC(=O)NC1C(=O)N2C1SC(C)(C)C2C(=O)O` (stereo not drawn) (tested in a mixture with another compound), the EC50 is 87.1 µM and the IC50 was more than 200 µM. For `CC(C)(C)NNC(=O)/C(=C/c1ccc([N+](=O)[O-])cc1)NC(=O)c1ccccc1`, in that order: more than 7.08 µM and more than 7.08 µM.

`CC1(C)CC(c2c[nH]c3ccccc23)=CC2=Nc3ccccc3C21O` (stereo not drawn): the outcome was inactive. For `CC(=O)N(C(C)=O)c1c(C)cc(-c2ccccc2)oc1=O`, the EC50 is more than 200 µM and the IC50 is more than 200 µM. Turning to `CN(C)CC(=O)C1C(=O)N(C)c2ccccc21` (stereo not drawn), the EC50 was more than 200 µM and the IC50 was more than 200 µM. Turning to `CC(C)(C)C1C=C(Sc2ccccc2)C(=O)O1` (stereo not drawn), the EC50 is more than 120 µM and the IC50 is 21.4 µM.

For `CC(/C(=N/NC(=O)C(N)=O)c1c(Cl)ccc(Cl)c1O)C1(O)C(=O)Nc2ccccc21` (stereo not drawn), the EC50 was more than 11.5 µM and the concentration for half-maximal inhibition (IC50) was more than 11.5 µM. `CC12CC(=O)Nc3ccccc3N1C(c1ccccc1)=NO2` (stereo not drawn): the EC50 is more than 200 µM and the half-maximal inhibitory concentration (IC50) is more than 200 µM.

As for `Nc1cccc2nnccc12`, the EC50 is more than 200 µM and the IC50 was more than 200 µM. On to `CCCCCCCCCCCCCCC(O)C[N+](C)(CCO)CCO` (stereo not drawn), for which the EC50 was more than 200 µM and the IC50 came to 1.1 µM. For `CC(=O)/C(=C/n1c(=S)sc2ccccc21)C(=O)Nc1ccccc1C`, in that order: more than 200 µM and 170 µM. For the molecule `COC(=O)c1ccccc1NC(=O)C(=O)CC(=O)c1ccccc1NC1=CC(=O)C(=O)c2ccccc21`, the EC50 was more than 27.5 µM and the IC50 is 4.68 µM. With `C/C=C(/I)CBr`, the EC50 was more than 955 µM and the IC50 is 479 µM.

Turning to `CN1CCN(C2=NCCO2)CC1`, the EC50 was more than 200 µM and the IC50 is more than 200 µM. Consider `CCN(CC)CCOc1ccc(/C=C(\C#N)c2ccc(N(CC)CC)cc2)cc1`, for which the EC50 is more than 200 µM and the IC50 is 0.891 µM. For the molecule `COC1=CC23CCCN2CCc2cc4c(cc2C3C1O)OCO4` (stereo not drawn), the outcome was inactive. As to `O=C1N[C@H]2c3c(Cl)sc(Cl)c3C(=O)[C@H]2O1`, the EC50 was more than 20 µM and the IC50 came to 0.955 µM. As for `COC(=O)C1CCC(=S)N1C(=O)c1ccccc1` (stereo not drawn), the EC50 was more than 200 µM and the IC50 was more than 200 µM. Regarding `CCOC(=O)C1(Br)C(c2ccccc2)NC(=O)NC1(C)Br` (stereo not drawn), the EC50 is more than 85.1 µM and the IC50 is more than 85.1 µM. With `CN(NC(=O)/C(=C/C=C/c1ccccc1)NC(=O)c1ccccc1)c1cnn(-c2ccccc2)c(=O)c1Cl`, the EC50 is more than 200 µM and the IC50 stood at 3.24 µM.

With `Cc1ccc(C(=O)CC2(O)C(=O)Nc3c(C)cc(Cl)cc32)cc1` (stereo not drawn), the EC50 was more than 110 µM and the IC50 is more than 110 µM. For `COc1ccc(N2C(=O)/C(=C/c3ccc(N(CCC#N)CCC#N)cc3)N=C2c2ccccc2)c(OC)c1`, the EC50 was more than 200 µM and the IC50 came to 50.1 µM. For `C#CCn1c2c(c3ccccc3c1=O)C(=O)c1ccccc1-2`, in that order: more than 63.1 µM and more than 63.1 µM. For `COC(=O)CCCC=C(c1cc(Br)c(OC)c(C(=O)OC)c1)c1cc(Br)c(OC)c(C(=O)OC)c1`, in that order: 1.82 µM and 42.7 µM. Turning to `CCC(N)Cc1c[nH]c2ccccc12` (stereo not drawn), the EC50 is more than 200 µM and the IC50 was more than 200 µM. Consider `CC1(CF)SCc2nc3ccccc3n21` (stereo not drawn), for which the EC50 is more than 200 µM and the IC50 was more than 200 µM. As to `C/C=C(\CCC1NCCc2c1[nH]c1ccccc21)[Si](C)(C)C` (stereo not drawn), the result was inactive. Consider `O=S(=O)(c1ccccc1)C(CN1CCCCC1)S(=O)(=O)c1ccccc1`, for which the result was inactive. On the same count and under the same terms, the same measure for `c1cc(C[N+]23CN4CN(CN(C4)C2)C3)cs1`: “inactive”. Take `Cc1ccc(C(=O)O)cc1NC(=O)c1cc(/C=C/c2ccccc2)[nH]c(=S)n1`: the EC50 is more than 240 µM and the IC50 was more than 240 µM. As to `CSc1c(C(=O)Nc2ccc(C)cc2)c(N)n(N)c(=O)c1C#N`, the EC50 was 100 µM and the half-maximal inhibitory concentration (IC50) worked out at 151 µM.

In the case of `COC(=O)C(CSc1ccc([N+](=O)[O-])cc1[N+](=O)[O-])NC(=O)CNC(=O)c1ccccc1` (stereo not drawn) (Bz-Gly-[ξC](Dnp)-OMe), the EC50 is more than 15.5 µM and the IC50 was more than 15.5 µM.

As for `N#CC12COC3(CCCCC3C1(C#N)C#N)OC2=N` (stereo not drawn), the EC50 is more than 200 µM and the IC50 is 3.98 µM.

As for `CCCCC(=O)N1SC(NC(=O)OC)=Nc2ccccc21`, the EC50 was more than 309 µM and the IC50 was 6.76 µM. For `O=c1c2cnccc2cc2c3ccccc3ccn12`, in that order: more than 200 µM and 7.41 µM. For `O=C(c1ccccc1)c1nnn(Cc2ccccc2Cn2nnc(C(=O)c3ccccc3)c2C(=O)c2ccccc2)c1C(=O)c1ccccc1`, in that order: more than 7.94 µM and more than 7.94 µM. In the case of `C1=C\SS/C=C\SS/1`, the EC50 was more than 200 µM and the IC50 was 22.9 µM. Turning to `O=C1C=C(N2CCCC2)c2cc(N3CCCC3)ncc2C1=O`, the result was inactive. Turning to `CCCCCCC(=O)CC(=O)C(=O)Nc1ccccc1C`, the EC50 is more than 25.1 µM and the IC50 was more than 25.1 µM. With `Clc1ccc(Oc2ccc(N=Cc3ccc(Cl)cc3Cl)cc2Cl)cc1`, the EC50 is more than 200 µM and the IC50 is 5.37 µM. In the same order, the values of `CC(=O)OCC1OC(NC(=S)Nn2c(-c3ccccc3)nc3ccccc3c2=O)C(OC(C)=O)C(OC(C)=O)C1OC(C)=O` (stereo not drawn) are more than 200 µM and more than 100 µM. In the same order, the values of `CCCCCCCCCCCCc1ccsc1-c1ccc(-c2ccc(-c3sccc3CCCCCCCCCCCC)s2)s1` are more than 25.1 µM and more than 25.1 µM.

`Cc1cc(NC(=O)Nc2ccc(N=Nc3cc(S(=O)(=O)O)c4cccc(S(=O)(=O)O)c4c3)c(C)c2)ccc1N=Nc1cc(S(=O)(=O)O)c2cccc(S(=O)(=O)O)c2c1`: the EC50 was 20 µM and the IC50 is more than 100 µM. For `CC1=C(C)C(=O)C(C2=C(C3=CC(=O)C(C)=C(C)C3=O)C(=O)C(C)=C(C)C2=O)=CC1=O`, in that order: more than 20 µM and 1.02 µM. Turning to `O=C1c2ccccc2C(=O)c2c1c(-c1ccccc1)cc(CCO)c2-c1ccccc1`, the result was inactive. `COC(=O)c1ccc(-c2nc(C#N)c(N)o2)cc1`: the EC50 was more than 200 µM and the IC50 is more than 200 µM. Regarding `CCCCCCCNC1=C(O)c2ccccc2C(=O)C1=O`, the EC50 was more than 200 µM and the IC50 was found to be 55 µM. On to `CCC1(CC)CC(=NNS(=O)(=O)c2ccc(C)cc2)C1`, for which the outcome was inactive. In the case of `Cc1cc(=O)n(-c2c(C)cccc2Cl)c(/C=C(\O)c2ccncc2)n1`, the EC50 is more than 4.07 µM and the IC50 is more than 4.07 µM.

For `CSCCCNC(=O)c1csc(-c2csc(C(CNC(=O)OC(C)(C)C)CNC(=O)OC(C)(C)C)n2)n1`, the EC50 was more than 200 µM and the IC50 turned out to be 22.4 µM. In the same order, the values of `O=C(Cn1cc(-c2ccccc2)nn1)NC1CCCCC1` are more than 200 µM and more than 200 µM.
